Data reported in patent publication US20170035708A1, “USE OF N-(4-TERT-BUTYLBENZYL)-3-CHLORO-N-[2-(4-CHLORO-3-ETHYL-PHENYL)-ETHYL]-2-FLUORO-5-TRIFLUOROMETHYL-BENZAMIDE FOR THE TREATMENT OF EYE DISEASES” (Hoffmann-La Roche Inc., priority 2013, published 2017).

System: Human umbilical vein endothelial cells (HUVEC)
Assay: alamarBlue viability assay in HUVECs
Assay type: cell-based
Settings: 72 h
Protocol: Human umbilical vein endothelial cells (HUVEC), the growth medium EGM and the basal medium EBM was obtained from Lonza. Additional FCS for the starving medium was used form Invitrogen.
The viability assay with alamarBlue® from Invitrogen was done in 96 well gelatin coated plates from BD.
The tested compounds were dissolved in DMSO at a stock concentration of 10 mM.
VEGF-A165 was obtained from R&D Systems® and has been dissolved at a stock concentration of 100 ug/ml in PBS.
HUVECs cells were maintained in Endothial growth medium (EGM) until Passage 5. For the viability assay HUVECs have been seeded in EBM with 0.5% FCS on gelatin coated 96 well plates at a cell density of 11.000 cells/well. Outer wells were left free and have been filled with medium afterwards. Cells were incubated overnight in a cell culture incubator at 37° C. with 5% CO2. Compounds and VEGF have been diluted in EBM/0.5% FCS to a 20× working concentration. 5 ul of the 20× pre-dilution have been added to the cells. HUVECs which have to be intended to grow under hypoxia conditions have been transferred to a cell culture incubator with 1% O2, 5% CO2 and 37° C. HUVECs grown under normoxia conditions were incubated in a normal cell culture incubator. After 72 h, 11 ul of alamarBlue® have been added to each well of the cells subsequently incubated for 4 h in the cell culture incubator. The absorbance has been detected at 570 nm with a reference wavelength of 600 nm.

| Molecule | alamarBlue assay OD 570 nm-600 nm (4.1 nM, hypoxia) | alamarBlue assay OD 570 nm-600 nm (4.1 nM, normoxia) | alamarBlue assay OD 570 nm-600 nm (10.2 nM, hypoxia) | alamarBlue assay OD 570 nm-600 nm (10.2 nM, normoxia) | alamarBlue assay OD 570 nm-600 nm (25.6 nM, hypoxia) | alamarBlue assay OD 570 nm-600 nm (25.6 nM, normoxia) | alamarBlue assay OD 570 nm-600 nm (64 nM, hypoxia) | alamarBlue assay OD 570 nm-600 nm (64 nM, normoxia) | alamarBlue assay OD 570 nm-600 nm (160 nM, hypoxia) | alamarBlue assay OD 570 nm-600 nm (160 nM, normoxia) | alamarBlue assay OD 570 nm-600 nm (400 nM, hypoxia) | alamarBlue assay OD 570 nm-600 nm (400 nM, normoxia) | alamarBlue assay OD 570 nm-600 nm (1000 nM, hypoxia) | alamarBlue assay OD 570 nm-600 nm (1000 nM, normoxia) | alamarBlue assay OD 570 nm-600 nm (2500 nM, hypoxia) | alamarBlue assay OD 570 nm-600 nm (2500 nM, normoxia) | effect on viability of HUVECs (hypoxia) | effect on viability of HUVECs (normoxia) | further results |
| --- | --- | --- | --- | --- | --- | --- | --- | --- | --- | --- | --- | --- | --- | --- | --- | --- | --- | --- | --- |
| COc1cc(F)c(C(C)C)cc1-c1ccc(C(F)(F)F)cc1CN1C(=O)O[C@H](c2cc(C(F)(F)F)cc(C(F)(F)F)c2)[C@@H]1C [Anacetrapib, (4S,5R)-5-[3,5-bis(trifluoromethyl)phenyl]-3-({2-[4-fluoro-2-methoxy-5-(propan-2-yl)phenyl]-5-(trifluoromethyl)phenyl}methyl)-4-methyl-1,3-oxazolidin-2-one] | 0.0003 | 0.0096 | 0.0065 | 0.0170 | 0.0014 | 0.0203 | 0.0093 | 0.0119 | −0.0022 | 0.0168 | 0.0260 | 0.0352 | 0.0565 | 0.0662 | 0.0814 | 0.0846 | positive effect on viability, albeit with lower efficacy | positive effect of viability |  |
| CCOC(=O)N1c2ccc(C(F)(F)F)cc2[C@@H](N(Cc2cc(C(F)(F)F)cc(C(F)(F)F)c2)C(=O)OC)C[C@H]1CC [Torcetrapib, [2R, 4S] 4-[(3,5-bis-trifluoromethyl-benzyl)-methoxycarbonyl-amino]-2-ethyl-6-trifluoromethyl-3,4-dihydro-2H-quinoline-1-carboxylic acid ethyl ester] | 0.0129 | 0.0020 | 0.0200 | −0.0004 | 0.0118 | 0.0160 | 0.0111 | 0.0007 | 0.0137 | 0.0194 | 0.0308 | 0.0152 | −0.0388 | 0.0001 | −0.0784 | 0.0138 | negative effect on the cell viability | no influence of viability could be detected |  |
| Cc1cc(C)c2c(c1)[C@@H](N(Cc1cc(C(F)(F)F)cc(C(F)(F)F)c1)c1nnn(C)n1)CCCN2C[C@H]1CC[C@H](C(=O)O)CC1 [Evacetrapib, Trans-4-({(5S)-5-[{[3,5-bis(trifluoromethyl)phenyl]methyl}(2-methyl-2H-tetrazol-5-yl)amino]-7,9-dimethyl-2,3,4,5-tetrahydro-1H-benzazepin-1-yl}methyl) cydohexanecarboxylic acid] | 0.0141 | 0.0032 | 0.0129 | 0.0158 | 0.0131 | 0.0164 | 0.0076 | 0.0051 | 0.0168 | 0.0227 | 0.0403 | 0.0103 | 0.0564 | 0.0191 | −0.1084 | −0.0107 | negative effect on the cell viability | no influence of viability could be detected |  |
| VEGF |  |  |  |  |  |  |  |  |  |  |  |  |  |  |  |  |  |  | viability measured at 570 nm (alamarBlue) (VEGF 1.2 ng/ml, hypoxia): 0.0480; viability measured at 570 nm (alamarBlue) (VEGF 1.2 ng/ml, normoxia): 0.0268; viability measured at 570 nm (alamarBlue) (VEGF 2.3 ng/ml, hypoxia): 0.0679; viability measured at 570 nm (alamarBlue) (VEGF 2.3 ng/ml, normoxia): 0.0394; viability measured at 570 nm (alamarBlue) (VEGF 4.7 ng/ml, hypoxia): 0.0983; viability measured at 570 nm (alamarBlue) (VEGF 4.7 ng/ml, normoxia): 0.0582; viability measured at 570 nm (alamarBlue) (VEGF 9.4 ng/ml, hypoxia): 0.1114; viability measured at 570 nm (alamarBlue) (VEGF 9.4 ng/ml, normoxia): 0.0908; viability measured at 570 nm (alamarBlue) (VEGF 18.8 ng/ml, hypoxia): 0.1039; viability measured at 570 nm (alamarBlue) (VEGF 18.8 ng/ml, normoxia): 0.1265; viability measured at 570 nm (alamarBlue) (VEGF 37.5 ng/ml, hypoxia): 0.0927; viability measured at 570 nm (alamarBlue) (VEGF 37.5 ng/ml, normoxia): 0.1449; viability measured at 570 nm (alamarBlue) (VEGF 75 ng/ml, hypoxia): 0.0906; viability measured at 570 nm (alamarBlue) (VEGF 75 ng/ml, normoxia): 0.1642; viability measured at 570 nm (alamarBlue) (VEGF 150 ng/ml, hypoxia): 0.0825; viability measured at 570 nm (alamarBlue) (VEGF 150 ng/ml, normoxia): 0.1618; survival signal in HUVECs in response to VEGF-A165 (normoxia and hypoxia): dose dependent survival signal |
